According to article PMC7402526, “An in vitro quantitative systems pharmacology approach for deconvolving mechanisms of drug-induced, multilineage cytopenias” (PLoS Computational Biology, 2020):

What was measured:
[1] = test system: multi-potent progenitors (MPPs); assay: MLTA, MPPs: concentration-response and QSP model fit; assay type: cell-based, human; details: Homo sapiens, 144 h
Procedure, shortened: (§1)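 Six-day flow cytometry counts, bead-normalized and expressed relative to the mean of six vehicle wells, underlie each value. Cells were primary human bone marrow CD34+ cells cultured in SFEM II with cytokines promoting multi-lineage differentiation and self-renewal.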

[2] = test system: granulocyte progenitor (Gran-lin prog); assay: MLTA, GranP: concentration-response and QSP model fit; assay type: cell-based, human; details: Homo sapiens, 144 h
Procedure, shortened: as §1

[3] = test system: monocyte progenitors (monocyte prog); assay: MLTA, MonoP: concentration-response and QSP model fit; assay type: cell-based, human; details: Homo sapiens, Monocyte, 144 h
Procedure, shortened: as §1

[4] = test system: neutrophils (neutrophil-lin); assay: MLTA, Neut: concentration-response and QSP model fit; assay type: cell-based, human; details: Homo sapiens, Neutrophil, 144 h
Procedure, shortened: as §1

[5] = test system: early erythroid cells (Eryth I); assay: MLTA, ErythI: concentration-response and QSP model fit; assay type: cell-based, human; details: Homo sapiens, 144 h
Procedure, shortened: as §1

[6] = test system: late erythroid cells (Eryth II); assay: MLTA, ErythII: concentration-response and QSP model fit; assay type: cell-based, human; details: Homo sapiens, 144 h
Procedure, shortened: as §1

[7] = test system: total viable cells (totalViableCells); assay: MLTA, total live cells concentration-response; assay type: cell-based; details: Homo sapiens, 144 h, 6 days, normalized to vehicle control, read-out: total_live normalized cell count
Experimental: A custom optimized cytokine cocktail was developed using commercially available cytokines (Peprotech, New Jersey) to facilitate simultaneous multi-lineage differentiation and self-renewal of freeze-thawed primary human bone marrow-derived CD34+ cells in SFEM II media (cells and media from StemCell Technologies, Vancouver). Cultures were carried out in ultra-low attachment 96-well plates (Corning, New York) with test article added on day 0 and cultured at 37°C, 85% relative humidity, and 5% CO2 for six days before interrogating drug impact via 17-parameter flow cytometry.
The flow cytometry panel used to define hematopoietic subsets was composed of CD34-PECy7, CD90-PECY5, CD38-AF488, CD371-PE, CD45Ra-BV421, CD14-BV605, CD42b-AF647, CD10-PEDazzle594, CD235a-PerCPCy5.5 (BioLegend, California), CD15-BUV395, CD41a-APCH7, CD71-BV786 (BD Biosciences, California), and DAPI for dead cell exclusion (ThermoFisher, California). In short, Day 6 cells were harvested, FcR-blocked (FcR binding inhibitor, ThermoFisher), surface-stained, then analyzed in a buffer containing TruCount Control Beads using a BD LSR Fortessa SORP fitted with a high-throughput sampler (BD Biosciences, California). Data was analyzed in Diva 6.0.2 and exported to CSV where after all cell data was transformed to cell per mL then normalized on a per-donor basis to untreated control wells to determine drug impact.
Donor material was collected and cultured as described above. The number of replicate donor samples per drug ranged from 2–7 and varied per drug (S1 Table). Drug treatment was added at time 0 and cells were maintained in culture for 6 days. Concentrations tested for each drug compound are contained in S1 Table. Concentrations were selected to span a range that is clinically useful. Following treatment, cell populations were measured using flow cytometry. We extracted cell counts from flow cytometry data, normalized to bead counts, and corrected for well volume.
Each well was normalized to the average of six vehicle control wells. For drugs that were tested across multiple runs of the assay, vehicle-normalized donor data were pooled, and we used the average of these pooled data for further modeling. Normalized data used as model inputs are included in S1 Table.

Question: Which activity at 0.0002 µM ([1]; dose 0.2 nM, 6 days, normalized to vehicle control, read-out: MPPs normalized cell count) does the source give for CN(C)C(=O)c1cc2cnc(Nc3ccc(N4CCNCC4)cn3)nc2n1C1CCCC1 [ribociclib] here?
Answer: The activity at 0.0002 µM was 81.4%.

Question: And the activity at 0.001 µM ([1]; dose 1 nM, 6 days, normalized to vehicle control, read-out: MPPs normalized cell count)?
Answer: The activity at 0.001 µM was 91.9%.

Question: What about the activity at 0.005 µM ([1]; dose 5 nM, 6 days, normalized to vehicle control, read-out: MPPs normalized cell count) of the same compound?
Answer: Its activity at 0.005 µM is 83.8%.

Question: What about the activity at 0.025 µM ([1]; dose 25 nM, 6 days, normalized to vehicle control, read-out: MPPs normalized cell count) of the same compound?
Answer: The activity at 0.025 µM was 63.7%.

Question: And the activity at 0.1 µM ([1]; dose 100 nM, 6 days, normalized to vehicle control, read-out: MPPs normalized cell count)?
Answer: Its activity at 0.1 µM is 46.9%.

Question: What about the activity at 0.5 µM ([1]; dose 500 nM, 6 days, normalized to vehicle control, read-out: MPPs normalized cell count) of the same compound?
Answer: Its activity at 0.5 µM is 28.4%.

Question: And the activity at 2.5 µM ([1]; dose 2500 nM, 6 days, normalized to vehicle control, read-out: MPPs normalized cell count)?
Answer: The activity at 2.5 µM was 16.9%.

Question: And the Emax ([1]; parameter from QSP model fitting, read-out: Emax_drug_MPP)?
Answer: The Emax was 0.0237%.

Question: And the EC50 ([2]; QSP model fit of 6-day MLTA data, read-out: EC50GranP)?
Answer: The EC50 was 0.0214 µM.

Question: And the activity at 0.0002 µM ([2]; dose 0.2 nM, 6 days, normalized to vehicle control, read-out: GranPs normalized cell count)?
Answer: The activity at 0.0002 µM was 87.1%.

Question: And the activity at 0.001 µM ([2]; dose 1 nM, 6 days, normalized to vehicle control, read-out: GranPs normalized cell count)?
Answer: Its activity at 0.001 µM is 105%.

Question: And the activity at 0.005 µM ([2]; dose 5 nM, 6 days, normalized to vehicle control, read-out: GranPs normalized cell count)?
Answer: The activity at 0.005 µM was 104%.

Question: What about the activity at 0.025 µM ([2]; dose 25 nM, 6 days, normalized to vehicle control, read-out: GranPs normalized cell count) of the same compound?
Answer: Its activity at 0.025 µM is 81.3%.

Question: What about the activity at 0.1 µM ([2]; dose 100 nM, 6 days, normalized to vehicle control, read-out: GranPs normalized cell count) of the same compound?
Answer: The activity at 0.1 µM was 70.3%.

Question: And the activity at 0.5 µM ([2]; dose 500 nM, 6 days, normalized to vehicle control, read-out: GranPs normalized cell count)?
Answer: The activity at 0.5 µM was 34.4%.

Question: And the activity at 2.5 µM ([2]; dose 2500 nM, 6 days, normalized to vehicle control, read-out: GranPs normalized cell count)?
Answer: Its activity at 2.5 µM is 10.8%.

Question: What about the Emax ([2]; parameter from QSP model fitting, read-out: Emax_drug_GranP) of the same compound?
Answer: Its Emax is 6.43%.

Question: And the activity at 0.0002 µM ([3]; dose 0.2 nM, 6 days, normalized to vehicle control, read-out: MonoPs normalized cell count)?
Answer: The activity at 0.0002 µM was 100%.

Question: What about the activity at 0.001 µM ([3]; dose 1 nM, 6 days, normalized to vehicle control, read-out: MonoPs normalized cell count) of the same compound?
Answer: The activity at 0.001 µM was 108%.

Question: And the activity at 0.005 µM ([3]; dose 5 nM, 6 days, normalized to vehicle control, read-out: MonoPs normalized cell count)?
Answer: Its activity at 0.005 µM is 99.8%.

Question: What about the activity at 0.025 µM ([3]; dose 25 nM, 6 days, normalized to vehicle control, read-out: MonoPs normalized cell count) of the same compound?
Answer: Its activity at 0.025 µM is 80.2%.

Question: What about the activity at 0.1 µM ([3]; dose 100 nM, 6 days, normalized to vehicle control, read-out: MonoPs normalized cell count) of the same compound?
Answer: Its activity at 0.1 µM is 45.6%.

Question: And the activity at 0.5 µM ([3]; dose 500 nM, 6 days, normalized to vehicle control, read-out: MonoPs normalized cell count)?
Answer: Its activity at 0.5 µM is 16.7%.

Question: What about the activity at 2.5 µM ([3]; dose 2500 nM, 6 days, normalized to vehicle control, read-out: MonoPs normalized cell count) of the same compound?
Answer: The activity at 2.5 µM was 6.97%.

Question: And the Emax ([3]; parameter from QSP model fitting, read-out: Emax_drug_MonoP)?
Answer: The Emax was 0.0352%.

Question: What about the EC50 ([4]; QSP model fit of 6-day MLTA data) of the same compound?
Answer: Its EC50 is 0.178 µM.

Question: What about the activity at 0.0002 µM ([4]; dose 0.2 nM, 6 days, normalized to vehicle control, read-out: Neut normalized cell count) of the same compound?
Answer: The activity at 0.0002 µM was 77.2%.

Question: What about the activity at 0.001 µM ([4]; dose 1 nM, 6 days, normalized to vehicle control, read-out: Neut normalized cell count) of the same compound?
Answer: Its activity at 0.001 µM is 83.1%.

Question: And the activity at 0.005 µM ([4]; dose 5 nM, 6 days, normalized to vehicle control, read-out: Neut normalized cell count)?
Answer: Its activity at 0.005 µM is 96.4%.

Question: And the activity at 0.025 µM ([4]; dose 25 nM, 6 days, normalized to vehicle control, read-out: Neut normalized cell count)?
Answer: Its activity at 0.025 µM is 65.4%.

Question: And the activity at 0.1 µM ([4]; dose 100 nM, 6 days, normalized to vehicle control, read-out: Neut normalized cell count)?
Answer: Its activity at 0.1 µM is 52.7%.

Question: And the activity at 0.5 µM ([4]; dose 500 nM, 6 days, normalized to vehicle control, read-out: Neut normalized cell count)?
Answer: Its activity at 0.5 µM is 25.1%.

Question: What about the activity at 2.5 µM ([4]; dose 2500 nM, 6 days, normalized to vehicle control, read-out: Neut normalized cell count) of the same compound?
Answer: Its activity at 2.5 µM is 4.85%.

Question: And the Emax ([4]; parameter from QSP model fitting, read-out: Emax_drug_Neut)?
Answer: The Emax was 13.9%.

Question: And the activity at 0.0002 µM ([5]; dose 0.2 nM, 6 days, normalized to vehicle control, read-out: ErythI normalized cell count)?
Answer: Its activity at 0.0002 µM is 101%.

Question: What about the activity at 0.001 µM ([5]; dose 1 nM, 6 days, normalized to vehicle control, read-out: ErythI normalized cell count) of the same compound?
Answer: Its activity at 0.001 µM is 102%.

Question: What about the activity at 0.005 µM ([5]; dose 5 nM, 6 days, normalized to vehicle control, read-out: ErythI normalized cell count) of the same compound?
Answer: The activity at 0.005 µM was 108%.

Question: What about the activity at 0.025 µM ([5]; dose 25 nM, 6 days, normalized to vehicle control, read-out: ErythI normalized cell count) of the same compound?
Answer: Its activity at 0.025 µM is 85.8%.

Question: What about the activity at 0.1 µM ([5]; dose 100 nM, 6 days, normalized to vehicle control, read-out: ErythI normalized cell count) of the same compound?
Answer: Its activity at 0.1 µM is 69%.

Question: And the activity at 0.5 µM ([5]; dose 500 nM, 6 days, normalized to vehicle control, read-out: ErythI normalized cell count)?
Answer: Its activity at 0.5 µM is 31.2%.

Question: What about the activity at 2.5 µM ([5]; dose 2500 nM, 6 days, normalized to vehicle control, read-out: ErythI normalized cell count) of the same compound?
Answer: The activity at 2.5 µM was 9.42%.

Question: And the Emax ([5]; parameter from QSP model fitting, read-out: Emax_drug_ErythroidI)?
Answer: The Emax was 0.05%.

Question: And the EC50 ([6]; QSP model fit of 6-day MLTA data, read-out: EC50ErythII)?
Answer: The EC50 was 0.222 µM.

Question: And the activity at 0.0002 µM ([6]; dose 0.2 nM, 6 days, normalized to vehicle control, read-out: ErythII normalized cell count)?
Answer: The activity at 0.0002 µM was 84.3%.

Question: What about the activity at 0.001 µM ([6]; dose 1 nM, 6 days, normalized to vehicle control, read-out: ErythII normalized cell count) of the same compound?
Answer: Its activity at 0.001 µM is 97.7%.

Question: And the activity at 0.005 µM ([6]; dose 5 nM, 6 days, normalized to vehicle control, read-out: ErythII normalized cell count)?
Answer: Its activity at 0.005 µM is 113%.

Question: What about the activity at 0.025 µM ([6]; dose 25 nM, 6 days, normalized to vehicle control, read-out: ErythII normalized cell count) of the same compound?
Answer: Its activity at 0.025 µM is 81.4%.

Question: And the activity at 0.1 µM ([6]; dose 100 nM, 6 days, normalized to vehicle control, read-out: ErythII normalized cell count)?
Answer: The activity at 0.1 µM was 79.8%.

Question: What about the activity at 0.5 µM ([6]; dose 500 nM, 6 days, normalized to vehicle control, read-out: ErythII normalized cell count) of the same compound?
Answer: Its activity at 0.5 µM is 66.7%.

Question: What about the activity at 2.5 µM ([6]; dose 2500 nM, 6 days, normalized to vehicle control, read-out: ErythII normalized cell count) of the same compound?
Answer: Its activity at 2.5 µM is 33.6%.

Question: What about the Emax ([6]; parameter from QSP model fitting, read-out: Emax_drug_ErythroidII) of the same compound?
Answer: Its Emax is 10.8%.

Question: What about the viability at 0.0002 µM ([7]; dose 0.2 nM) of the same compound?
Answer: Its viability at 0.0002 µM is 90%.

Question: And the viability at 0.001 µM ([7]; dose 1 nM)?
Answer: Its viability at 0.001 µM is 97.8%.

Question: And the viability at 0.005 µM ([7]; dose 5 nM)?
Answer: The viability at 0.005 µM was 106%.

Question: What about the viability at 0.025 µM ([7]; dose 25 nM) of the same compound?
Answer: Its viability at 0.025 µM is 79.4%.

Question: And the viability at 0.1 µM ([7]; dose 100 nM)?
Answer: Its viability at 0.1 µM is 66.6%.

Question: And the viability at 0.5 µM ([7]; dose 500 nM)?
Answer: Its viability at 0.5 µM is 42.1%.

Question: What about the viability at 2.5 µM ([7]; dose 2500 nM) of the same compound?
Answer: Its viability at 2.5 µM is 17.8%.
